Measured values: US20100076015A1, “Aminopyridine Derivatives” (VANTIA LIMITED, priority 2008, published 2010)

Molecular target: T1, Human KLK1 (Homo sapiens, UniProt P06870)
T1 construct: purchased Callbiochem (Calbiochem)
Test: Determination of the IC50 for KLK1 (fluorogenic substrate H-DVal-Leu-Arg-AFC)
Format: biochemical
Settings: 37° C.
Procedure: Determination of the IC50 for KLK1
KLK1 inhibitory activity in vitro was determined using standard published methods (see e.g. Johansen et al., Int. J. Tiss. Reac. 1986, 8, 185; Shori et al., Biochem. Pharmacol., 1992, 43, 1209; Stürzebecher et al., Biol. Chem. Hoppe-Seyler, 1992, 373, 1025). Human KLK1 (Callbiochem) was incubated at 37° C. with the fluorogenic substrate H-DVal-Leu-Arg-AFC and various concentrations of the test compound. Residual enzyme activity (initial rate of reaction) was determined by measuring the change in optical absorbance at 410 nm and the IC50 value for the test compound was determined.

T1 sequence (P06870 25-262): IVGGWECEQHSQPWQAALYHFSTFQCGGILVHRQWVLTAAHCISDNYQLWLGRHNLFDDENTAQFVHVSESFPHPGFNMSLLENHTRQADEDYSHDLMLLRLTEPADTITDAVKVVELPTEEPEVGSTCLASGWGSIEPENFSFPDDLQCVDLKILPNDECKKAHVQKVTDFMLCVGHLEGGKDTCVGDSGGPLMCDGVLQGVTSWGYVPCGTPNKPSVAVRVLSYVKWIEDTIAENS

| IC50 [nM] | SMILES |
| --- | --- |
| 7.1 | Nc1ccc(CNC(=O)[C@H](Cc2ccc(Cl)c(Cl)c2)NC(=O)[C@H]2CSCN2)cn1 [Example 56, (S)-Thiazolidine-4-carboxylic acid [(S)-1-[(6-amino-pyridin-3-ylmethyl)-carbamoyl]-2-(3,4-dichloro-phenyl)-ethyl]-amide] |
| 34.3 | CC(C)N(C(C)C)[C@@H](C)C(=O)N[C@@H](Cc1ccc(F)cc1)C(=O)NCc1ccc(N)nc1 [Example 372, (S)—N-[(S)-1-[(6-Amino-pyridin-3-ylmethyl)-carbamoyl]-2-(4-fluoro-phenyl)-ethyl]-2-diisopropylamino-propionamide] |
| 105 | CCOc1ccc(C[C@H](NC(=O)c2[nH]c(C)cc2C)C(=O)NCc2ccc(N)nc2)cc1 [Example 255, 3,5-Dimethyl-1H-pyrrole-2-carboxylic acid [(S)-1-[(6-amino-pyridin-3-ylmethyl)-carbamoyl]-2-(4-ethoxy-phenyl)-ethyl]-amide] |
| 20.7 | Nc1ccc(CNC(=O)[C@H](Cc2ccc(Cl)c(Cl)c2)NC(=O)[C@H]2CC(F)(F)CN2)cn1 [Example 66, (R)-4,4-Difluoro-pyrrolidine-2-carboxylic acid [(S)-1-[(6-amino-pyridin-3-ylmethyl)-carbamoyl]-2-(3,4-dichloro-phenyl)-ethyl]-amide] |
| 84.6 | Cc1nc(N)ccc1CNC(=O)[C@@H](Cc1ccc(Cl)c(Cl)c1)NC(=O)[C@@H](N)c1ccccc1 [Example 197, (R)—N-(6-Amino-2-methyl-pyridin-3-ylmethyl)-2-((S)-2-amino-2-phenyl-acetylamino)-3-(3,4-dichloro-phenyl)-propionamide] |
| 80.6 | CC(C)N(C)CC(=O)N[C@@H](Cc1ccc(F)c(F)c1)C(=O)NCc1ccc(N)nc1 [Example 156, (S)—N-(6-Amino-pyridin-3-ylmethyl)-3-(3,4-difluoro-phenyl)-2-[2-(isopropyl-methyl-amino)-acetylamino]-propionamide] |
| 12.1 | COc1ccc2[nH]c(C(=O)N[C@@H](Cc3cccc(C)c3)C(=O)NCc3ccc(N)nc3)cc2c1 [Example 318, 5-Methoxy-1H-indole-2-carboxylic acid {(S)-1-[(6-amino-pyridin-3-ylmethyl)-carbamoyl]-2-m-tolyl-ethyl}-amide] |
| 93.5 | CN(CCc1ccccc1)CC(=O)N[C@@H](Cc1ccc(F)c(F)c1)C(=O)NCc1ccc(N)nc1 [Example 161, (S)—N-(6-Amino-pyridin-3-ylmethyl)-3-(3,4-difluoro-phenyl)-2-[2-(methyl-phenethyl-amino)-acetylamino]-propionamide] |
| 3 | C[C@@H](C(=O)N[C@@H](Cc1ccc(C(F)(F)F)cc1)C(=O)NCc1ccc(N)nc1)N1CCCCC1 [Example 422, (S)—N-[(S)-1-[(6-Amino-pyridin-3-ylmethyl)-carbamoyl]-2-(4-trifluoromethyl-phenyl)-ethyl]-2-piperidin-1-yl-propionamide] |
| 6.5 | Cc1cc(C)c(C(=O)N[C@@H](Cc2ccccc2Cl)C(=O)NCc2ccc(N)nc2)[nH]1 [Example 239, 3,5-Dimethyl-1H-pyrrole-2-carboxylic acid [(S)-1-[(6-amino-pyridin-3-ylmethyl)-carbamoyl]-2-(2-chloro-phenyl)-ethyl]-amide] |
| 1.6 | CC(C)N1CCC[C@@H]1C(=O)N[C@@H](Cc1cccc(Cl)c1)C(=O)NCc1ccc(N)nc1 [Example 120, (R)-1-Isopropyl-pyrrolidine-2-carboxylic acid [(S)-1-[(6-amino-pyridin-3-ylmethyl)-carbamoyl]-2-(3-chloro-phenyl)-ethyl]-amide] |
| 215 | CC(C)N1CCC[C@@H]1C(=O)N[C@@H](Cc1ccncc1)C(=O)NCc1ccc(N)nc1 [Example 129, (R)-1-Isopropyl-pyrrolidine-2-carboxylic acid {(S)-1-[(6-amino-pyridin-3-ylmethyl)-carbamoyl]-2-pyridin-4-yl-ethyl}-amide] |
| 0.29 | CCC(C)[C@@H](NS(C)(=O)=O)C(=O)N[C@@H](Cc1ccc(Cl)c(Cl)c1)C(=O)NCc1ccc(N)nc1 (stereo partly drawn) [Example 211, (R)-2-Methanesulfonylamino-3-methyl-pentanoic acid [(S)-1-[(6-amino-pyridin-3-ylmethyl)-carbamoyl]-2-(3,4-dichloro-phenyl)-ethyl]-amide] |
| 17.1 | CN1CCC[C@@H]1C(=O)N[C@@H](Cc1cccc(F)c1)C(=O)NCc1ccc(N)nc1 [Example 99, (R)-1-Methyl-pyrrolidine-2-carboxylic acid [(S)-1-[(6-amino-pyridin-3-ylmethyl)-carbamoyl]-2-(3-fluoro-phenyl)-ethyl]-amide] |
| 0.16 | CC(C)N(C)[C@@H](C)C(=O)N[C@@H](Cc1ccc(Cl)c(Cl)c1)C(=O)NCc1ccc(N)nc1 [Example 401, (S)—N-[(S)-1-[(6-Amino-pyridin-3-ylmethyl)-carbamoyl]-2-(3,4-dichloro-phenyl)-ethyl]-2-(isopropyl-methyl-amino)-propionamide] |
| 16.9 | CCC(C)[C@@H](N)C(=O)N[C@@H](C(=O)NCc1ccc(N)nc1)C(C1CCCCC1)C1CCCCC1 (stereo partly drawn) [Example 214, (R)-2-Amino-3-methyl-pentanoic acid {(R)-1-[(6-amino-pyridin-3-ylmethyl)-carbamoyl]-2,2-dicyclohexyl-ethyl}-amide] |
| 16.6 | Nc1ccc(CNC(=O)[C@H](Cc2ccc(F)c(F)c2)NC(=O)CN2CCCCC2)cn1 [Example 170, (S)—N-(6-Amino-pyridin-3-ylmethyl)-3-(3,4-difluoro-phenyl)-2-(2-piperidin-1-yl-acetylamino)-propionamide] |
| 38.4 | COc1ccc2[nH]c(C(=O)N[C@@H](Cc3cccc(F)c3)C(=O)NCc3ccc(N)nc3)cc2c1 [Example 312, 5-Methoxy-1H-indole-2-carboxylic acid [(S)-1-[(6-amino-pyridin-3-ylmethyl)-carbamoyl]-2-(3-fluoro-phenyl)-ethyl]-amide] |
| 45.2 | CN1CCCC1C(=O)NC(Cc1c(F)c(F)c(F)c(F)c1F)C(=O)NCc1ccc(N)nc1 [Example 97, (R)-1-Methyl-pyrrolidine-2-carboxylic acid {(S)-1-[(6-amino-pyridin-3-ylmethyl)-carbamoyl]-2-pentafluorophenyl-ethyl}-amide] |
| 35.2 | Cc1cc(C)c(C(=O)N[C@@H](CC2CCCCC2)C(=O)NCc2ccc(N)nc2)[nH]1 [Example 238, 3,5-Dimethyl-1H-pyrrole-2-carboxylic acid {(S)-1-[(6-amino-pyridin-3-ylmethyl)-carbamoyl]-2-cyclohexyl-ethyl}-amide] |
| 60.4 | Cc1nc(N)ccc1CNC(=O)[C@H](Cc1ccc(Cl)c(Cl)c1)NC(=O)[C@H]1CC(F)(F)CN1 [Example 192, (R)-4,4-Difluoro-pyrrolidine-2-carboxylic acid [(S)-1-[(6-amino-2-methyl-pyridin-3-ylmethyl)-carbamoyl]-2-(3,4-dichloro-phenyl)-ethyl]-amide] |
| 15.6 | COc1ccc2[nH]c(C(=O)N[C@@H](Cc3cccc(C(F)(F)F)c3)C(=O)NCc3ccc(N)nc3)cc2c1 [Example 308, 5-Methoxy-1H-indole-2-carboxylic acid [(S)-1-[(6-amino-pyridin-3-ylmethyl)-carbamoyl]-2-(3-trifluoromethyl-phenyl)-ethyl]-amide] |
| 48.6 | Nc1ccc(CNC(=O)[C@H](Cc2ccc(Cl)c(Cl)c2)NC(=O)[C@@H](N)c2ccccc2)cn1 [Example 58, (S)-2-((S)-2-Amino-2-phenyl-acetylamino)-N-(6-amino-pyridin-3-ylmethyl)-3-(3,4-dichloro-phenyl)-propionamide] |
| 30.5 | Cc1cc(C(=O)O)[nH]c1C(=O)N[C@@H](Cc1cccc(C(F)(F)F)c1)C(=O)NCc1ccc(N)nc1 [Example 276, 5-[(S)-1-[(6-Amino-pyridin-3-ylmethyl)-carbamoyl]-2-(3-trifluoromethyl-phenyl)-ethylcarbamoyl]-4-methyl-1H-pyrrole-2-carboxylic acid] |
| 2.1 | CC(C)N1CCC[C@@H]1C(=O)N[C@@H](Cc1cccc2ccccc12)C(=O)NCc1ccc(N)nc1 [Example 118, (R)-1-Isopropyl-pyrrolidine-2-carboxylic acid {(S)-1-[(6-amino-pyridin-3-ylmethyl)-carbamoyl]-2-naphthalen-1-yl-ethyl}-amide] |
| 7.3 | CCC(C)[C@@H](C(=O)N[C@@H](Cc1ccc(F)cc1)C(=O)NCc1ccc(N)nc1)N(C)C(C)C (stereo partly drawn) [Example 371, (S)-2-(Isopropyl-methyl-amino)-3-methyl-pentanoic acid [(S)-1-[(6-amino-pyridin-3-ylmethyl)-carbamoyl]-2-(4-fluoro-phenyl)-ethyl]-amide] |
| 13.7 | Nc1ccc(CNC(=O)[C@H](Cc2ccc(Cl)c(Cl)c2)NC(=O)[C@H]2CCCN2Cc2ccccc2)cn1 [Example 141, (R)-1-Benzyl-pyrrolidine-2-carboxylic acid [(S)-1-[(6-amino-pyridin-3-ylmethyl)-carbamoyl]-2-(3,4-dichloro-phenyl)-ethyl]-amide] |
| 20.2 | CC(C)N(C)[C@@H](CO)C(=O)N[C@@H](Cc1ccc(F)c(F)c1)C(=O)NCc1ccc(N)nc1 [Example 360, (S)—N-[(S)-1-[(6-Amino-pyridin-3-ylmethyl)-carbamoyl]-2-(3,4-difluoro-phenyl)-ethyl]-3-hydroxy-2-(isopropyl-methyl-amino)-propionamide] |
| 119 | Cc1nc(N)ccc1CNC(=O)[C@H](Cc1cccc2ccccc12)NC(=O)c1cc2cc(F)ccc2[nH]1 [Example 305, 5-Fluoro-1H-indole-2-carboxylic acid {(S)-1-[(6-amino-2-methyl-pyridin-3-ylmethyl)-carbamoyl]-2-naphthalen-1-yl-ethyl}-amide] |
